{"source": "patent US20240059691A1", "about": "(KALVISTA PHARMACEUTICALS LIMITED, priority 2020, published 2024)", "data": [{"molecular_target": "Human Factor XIIa (Homo sapiens (Human), UniProt P00748)", "sequence (P00748 373-615)": "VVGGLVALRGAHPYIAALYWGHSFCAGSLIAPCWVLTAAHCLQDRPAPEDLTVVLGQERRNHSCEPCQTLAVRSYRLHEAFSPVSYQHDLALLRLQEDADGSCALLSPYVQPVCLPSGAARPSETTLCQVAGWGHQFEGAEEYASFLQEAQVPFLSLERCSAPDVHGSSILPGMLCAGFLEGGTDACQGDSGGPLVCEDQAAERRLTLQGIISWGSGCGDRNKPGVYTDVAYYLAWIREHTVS", "test": "Determination of FXIIa inhibition (fluorogenic substrate H-DPro-Phe-Arg-AFC, IC50 assay)", "type": "biochemical", "conditions": "substrate H-DPro-Phe-Arg-AFC at Km, 25° C.; class scale A-G", "method": "Determination of FXIIa Inhibition\nIn vitro inhibition of Factor XIIa was determined using an IC50 assay based on standard literature methods (see e.g Baeriswyl et al., ACS Chem. Biol., 2015, 10 (8) 1861; Bouckaert et al., European Journal of Medicinal Chemistry 110 (2016) 181). Human Factor XIIa (Enzyme Research Laboratories) was incubated at 25° C. with the fluorogenic substrate H-DPro-Phe-Arg-AFC (Peptide Protein Science) and various concentrations of the test compound. Protease activity was measured by monitoring the accumulation of liberated fluorescence from the substrate over 5 min at 25° C. The linear rate of fluorescence increase per minute was expressed as percentage (%) activity. The Km for the cleavage of the substrate by FXIIa was determined by standard transformation of the Michaelis-Menten equation. The compound inhibitor assays were performed at substrate Km concentration. IC50 values were calculated as the concentration of inhibitor giving 50% inhibition (IC50) of the uninhibited enzyme activity (100%).", "units": {"IC50": "nM"}, "values": [{"smiles": "Cc1cc(N2CCn3c(nnc3C(F)(F)F)C2C)ncc1CNc1ccnc2[nH]c(Cl)cc12", "note": "(racemic) [Example 1314, 2-Chloro-N-((4-methyl-6-(8-methyl-3-(trifluoromethyl)-5,6-dihydro-[1,2,4]triazolo[4,3-a]pyrazin-7(8H)-yl)pyridin-3-yl)methyl)-1H-pyrrolo[2,3-b]pyridin-4-amine]", "IC50": "10 to 100"}, {"smiles": "Nc1nccc2cc(NCc3ccc(OCC4CCn5ccnc5C4)nc3)ccc12", "note": "(single isomer, unassigned) [Example 1023, 6-N-({6-[(7R*)-5H,6H,7H,8H-imidazo[1,2-a]pyridin-7-ylmethoxy]pyridin-3-yl}methyl)isoquinoline-1,6-diamine]", "IC50": "100 to 300"}, {"smiles": "Nc1nccc2cc(NCc3ccc(OC[C@H]4CCn5ccnc5C4)nc3)ccc12", "note": "(single isomer, unassigned) [Example 1024, 6-N-({6-[(7S*)-5H,6H,7H,8H-imidazo[1,2-a]pyridin-4-yl}-ylmethyl)isoquinoline-1,6-diamine]", "IC50": "100 to 300"}, {"smiles": "Cc1cc(N2CCn3c(nnc3C(F)(F)F)C2C)ncc1CNc1ccnc2[nH]c(Cl)cc12", "note": "(single isomer, unassigned) [Example 1315, (R*)-2-Chloro-N-((4-methyl-6-(8-methyl-3-(trifluoromethyl)-5,6-dihydro-[1,2,4]triazolo[4,3-a]pyrazin-7(8H)-yl)pyridin-3-yl)methyl)-1H-pyrrolo[2,3-b]pyridin-4-amine]", "IC50": "10000 to 40000"}, {"smiles": "Cc1cc(N2CCn3c(nnc3C(F)(F)F)C2C)ncc1CNc1ccnc2[nH]c(Cl)cc12", "note": "(single isomer, unassigned) [Example 1316, (S*)-2-Chloro-N-((4-methyl-6-(8-methyl-3-(trifluoromethyl)-5,6-dihydro-[1,2,4]triazolo[4,3-a]pyrazin-7(8H)-yl)pyridin-3-yl)methyl)-1H-pyrrolo[2,3-b]pyridin-4-amine]", "IC50": "10 to 100"}, {"smiles": "CCC1c2nnc(C(F)(F)F)n2CCN1c1cc(C)c(CNc2cccc3c(N)nccc23)cn1", "note": "(single isomer, unassigned) [Example 1320, (R*)-N5-((6-(8-ethyl-3-(trifluoromethyl)-5,6-dihydro-[1,2,4]triazolo[4,3-a]pyrazin-7(8H)-yl)-4-methylpyridin-3-yl)methyl)isoquinoline-1,5-diamine]", "IC50": "10000 to 40000"}, {"smiles": "CCC1c2nnc(C(F)(F)F)n2CCN1c1cc(C)c(CNc2cccc3c(N)nccc23)cn1", "note": "(single isomer, unassigned) [Example 1321, (S*)-N5-((6-(8-ethyl-3-(trifluoromethyl)-5,6-dihydro-[1,2,4]triazolo[4,3-a]pyrazin-7(8H)-yl)-4-methylpyridin-3-yl)methyl)isoquinoline-1,5-diamine]", "IC50": "100 to 300"}, {"smiles": "COCC1c2nnc(C(F)(F)F)n2CCN1c1cc(C)c(CNc2cccc3c(N)nccc23)cn1", "note": "(single isomer, unassigned) [Example 1343, (S*)-N5-((6-(8-(methoxymethyl)-3-(trifluoromethyl)-5,6-dihydro-[1,2,4]triazolo[4,3-a]pyrazin-7(8H)-yl)-4-methylpyridin-3-yl)methyl)isoquinoline-1,5-diamine]", "IC50": "3000 to 10000"}, {"smiles": "COCC1c2nnc(C(F)(F)F)n2CCN1c1cc(C)c(CNc2cccc3c(N)nccc23)cn1", "note": "(single isomer, unassigned) [Example 1344, (R*)-N5-((6-(8-(methoxymethyl)-3-(trifluoromethyl)-5,6-dihydro-[1,2,4]triazolo[4,3-a]pyrazin-7(8H)-yl)-4-methylpyridin-3-yl)methyl)isoquinoline-1,5-diamine]", "IC50": "10 to 100"}, {"smiles": "Cc1cc(N2CCn3c(nnc3C(F)(F)F)C2C)cnc1CNc1cccc2c(N)nccc12", "note": "(single isomer, unassigned) [Example 1345, (R*)-N5-((3-methyl-5-(8-methyl-3-(trifluoromethyl)-5,6-dihydro-[1,2,4]triazolo[4,3-a]pyrazin-7(8H)-yl)pyridin-2-yl)methyl)isoquinoline-1,5-diamine]", "IC50": "10 to 100"}, {"smiles": "Cc1cc(N2CCn3c(nnc3C(F)(F)F)C2C)cnc1CNc1cccc2c(N)nccc12", "note": "(single isomer, unassigned) [Example 1346, (S*)-N5-((3-methyl-5-(8-methyl-3-(trifluoromethyl)-5,6-dihydro-[1,2,4]triazolo[4,3-a]pyrazin-7(8H)-yl)pyridin-2-yl)methyl)isoquinoline-1,5-diamine]", "IC50": "1000 to 3000"}, {"smiles": "Nc1nccc2cc(NCc3ccnc(OC[C@@H]4CCn5ccnc5C4)c3)ccc12", "note": "(single isomer, unassigned) [Example 4412, 6-N-({2-[(7R*)-5H,6H,7H,8H-imidazo[1,2-a]pyridin-7-ylmethoxy]pyridin-4-yl}methyl)isoquinoline-1,6-diamine]", "IC50": "100 to 300"}, {"smiles": "CN1CCN(Cc2ccc(CNc3ccc4c(N)nccc4c3)cc2)CC1", "note": "[Example 1007, 6-N-({4-[(4-methylpiperazin-1-yl)methyl]phenyl}methyl)isoquinoline-1,6-diamine]", "IC50": "300 to 1000"}, {"smiles": "Nc1nccc2cc(NCc3ccc(OCc4ccncc4)nc3)ccc12", "note": "[Example 1014, 6-N-{[6-(pyridin-4-ylmethoxy)pyridin-3-yl]methyl}isoquinoline-1,6-diamine]", "IC50": "3000 to 10000"}, {"smiles": "CN1CCC(COc2ccc(CNc3ccc4c(N)nccc4c3)cn2)CC1=O", "note": "(stereo not shown) [Example 1015, 4-{[(5-{[(1-aminoisoquinolin-6-yl)amino]methyl}pyridin-2-yl)oxy]methyl}-1-methylpiperidin-2-one]", "IC50": "300 to 1000"}, {"smiles": "Nc1nccc2cc(NCc3ccc(OCC4CCNCC4)nc3)ccc12", "note": "[Example 1016, 6-N-{[6-(piperidin-4-ylmethoxy)pyridin-3-yl]methyl}isoquinoline-1,6-diamine]", "IC50": "100 to 300"}, {"smiles": "CC(C)(O)CN1CCC(COc2ccc(CNc3ccc4c(N)nccc4c3)cn2)CC1", "note": "[Example 1017, 1-(4-(((5-(((1-aminoisoquinolin-6-yl)amino)methyl)pyridin-2-yl)oxy)methyl)piperidin-1-yl)-2-methylpropan-2-ol]", "IC50": "300 to 1000"}, {"smiles": "CN1CCC(COc2ccc(CCc3ccc4c(N)nccc4c3)cn2)CC1", "note": "[Example 1018, 6-(2-(6-((1-methylpiperidin-4-yl)methoxy)pyridin-3-yl)ethyl)isoquinolin-1-amine]", "IC50": "300 to 1000"}, {"smiles": "CN1CCC(COc2ccc(CCc3cccc4c(N)nccc34)cn2)CC1", "note": "[Example 1019, 5-(2-{6-[(1-methylpiperidin-4-yl)methoxy]pyridin-3-yl}ethyl)isoquinolin-1-amine]", "IC50": "3000 to 10000"}, {"smiles": "CN1CCC(COc2ccc(CNc3cnc4[nH]cc(Cl)c4c3)cn2)CC1", "note": "[Example 1020, 3-chloro-N-((6-((1-methylpiperidin-4-yl)methoxy)pyridin-3-yl)methyl)-1H-pyrrolo[2,3-b]pyridin-5-amine]", "IC50": "1000 to 3000"}, {"smiles": "CN1CCC(COc2ccc(CNc3ccc4c(N)ncnc4c3)cn2)CC1", "note": "[Example 1021, N7-((6-((1-methylpiperidin-4-yl)methoxy)pyridin-3-yl)methyl)quinazoline-4,7-diamine]", "IC50": "10000 to 40000"}, {"smiles": "CN1CCC(COc2ccc(CNc3cccc4c(N)ncnc34)cn2)CC1", "note": "[Example 1022, N8-[[6-[(1-methyl-4-piperidyl)methoxy]-3-pyridyl]methyl]quinazoline-4,8-diamine]", "IC50": "10000 to 40000"}, {"smiles": "Cn1ccnc1CCCOc1ccc(CNc2ccc3c(N)nccc3c2)cn1", "note": "[Example 1025, 6-N-({6-[3-(1-methylimidazol-2-yl)propoxy]pyridin-3-yl}methyl)isoquinoline-1,6-diamine]", "IC50": "300 to 1000"}, {"smiles": "CN1CCC(COc2ccc(CNc3ccc4cncc(CO)c4c3)cn2)CC1", "note": "[Example 1026, (6-(((6-((1-Methylpiperidin-4-yl)methoxy)pyridin-3-yl)methyl)amino)isoquinolin-4-yl)methanol]", "IC50": "10000 to 40000"}, {"smiles": "COc1nc(OCC2CCN(C)CC2)ccc1CNc1ccc2c(N)nccc2c1", "note": "[Example 1027, N6-((2-methoxy-6-((1-methylpiperidin-4-yl)methoxy)pyridin-3-yl)methyl)isoquinoline-1,6-diamine]", "IC50": "100 to 300"}, {"smiles": "Nc1nccc2cc(NCc3ccc(OCC4CCn5cc(C(F)(F)F)nc5C4)nc3)ccc12", "note": "(stereo not shown) [Example 1028, N6-((6-((2-(trifluoromethyl)-5,6,7,8-tetrahydroimidazo[1,2-a]pyridin-7-yl)methoxy)pyridin-3-yl)methyl)isoquinoline-1,6-diamine]", "IC50": "1000 to 3000"}, {"smiles": "Nc1nccc2cc(NCc3ccc(OCCCn4ccnc4)nc3)ccc12", "note": "[Example 1031, 6-N-({6-[3-(imidazol-1-yl)propoxy]pyridin-3-yl}methyl)isoquinoline-1,6-diamine]", "IC50": "1000 to 3000"}, {"smiles": "CN1CCC(CCOc2ccc(CNc3ccc4c(N)nccc4c3)cn2)CC1", "note": "[Example 1032, 6-N-({6-[2-(1-methylpiperidin-4-yl)ethoxy]pyridin-3-yl}methyl)isoquinoline-1,6-diamine]", "IC50": "300 to 1000"}, {"smiles": "Cn1ccnc1CCCNc1ncc(CNc2ccc3c(N)ncc(Cl)c3c2)cn1", "note": "[Example 1038, 4-chloro-6-N-[(2-{[3-(1-methylimidazol-2-yl)propyl]amino}pyrimidin-5-yl)methyl]isoquinoline-1,6-diamine]", "IC50": "3000 to 10000"}, {"smiles": "Nc1ncc(Cl)c2cc(NCc3ccc(OCC4CCn5ccnc5C4)nc3)ccc12", "note": "(stereo not shown) [Example 1041, 4-Chloro-N6-[[6-(5,6,7,8-tetrahydroimidazo[1,2-a]pyridin-7-ylmethoxy)-3-pyridyl]methyl]isoquinoline-1,6-diamine]", "IC50": "300 to 1000"}, {"smiles": "CN1C[C@@H]2C(COc3ccc(CNc4ccc5c(N)nccc5c4)cn3)[C@@H]2C1", "note": "(stereo partly drawn) [Example 1175, 6-N-[(6-{[(1R,5S,6S)-3-methyl-3-azabicyclo[3.1.0]hexan-6-yl]methoxy}pyridin-3-yl)methyl]isoquinoline-1,6-diamine]", "IC50": "300 to 1000"}]}]}
